According to patent publication US10934274B2, “Quinoline derivatives as TAM RTK inhibitors” (Qurient Co., Ltd., priority 2015, dated 2021):

Tests used:
TYRO3 = target: T1, TYRO3 (Homo sapiens, UniProt Q06418); test: LanthaScreen Eu kinase binding assay, TYRO3; details: Tracer 236
T1 construct: purchased Life Technologies
T1 sequence (Q06418 41-890): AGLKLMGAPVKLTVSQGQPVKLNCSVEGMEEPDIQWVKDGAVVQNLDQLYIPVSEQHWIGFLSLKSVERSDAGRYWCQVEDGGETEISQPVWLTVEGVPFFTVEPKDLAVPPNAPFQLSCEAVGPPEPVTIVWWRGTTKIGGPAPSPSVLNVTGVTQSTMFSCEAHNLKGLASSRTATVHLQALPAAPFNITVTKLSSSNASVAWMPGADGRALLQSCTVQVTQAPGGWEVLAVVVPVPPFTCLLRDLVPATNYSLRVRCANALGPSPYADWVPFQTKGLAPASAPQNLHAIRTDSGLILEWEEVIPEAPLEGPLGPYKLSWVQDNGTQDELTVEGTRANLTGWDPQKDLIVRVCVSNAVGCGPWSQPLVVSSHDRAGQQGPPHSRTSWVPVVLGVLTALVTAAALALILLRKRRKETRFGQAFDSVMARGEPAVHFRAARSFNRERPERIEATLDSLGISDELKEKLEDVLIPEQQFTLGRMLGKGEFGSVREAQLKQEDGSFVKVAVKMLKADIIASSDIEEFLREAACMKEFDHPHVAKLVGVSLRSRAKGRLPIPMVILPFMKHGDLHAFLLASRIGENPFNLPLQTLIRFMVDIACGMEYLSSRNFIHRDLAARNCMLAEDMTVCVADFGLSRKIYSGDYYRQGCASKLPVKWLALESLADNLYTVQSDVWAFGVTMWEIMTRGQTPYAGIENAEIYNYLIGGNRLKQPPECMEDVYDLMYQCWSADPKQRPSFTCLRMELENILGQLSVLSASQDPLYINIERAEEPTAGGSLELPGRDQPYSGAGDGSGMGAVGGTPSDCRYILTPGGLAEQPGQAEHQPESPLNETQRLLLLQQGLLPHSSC

Axl = target: T2, Axl (Homo sapiens, UniProt P30530); test: LanthaScreen Eu kinase binding assay, Axl; details: Tracer 236
T2 construct: purchased Life Technologies
T2 sequence (P30530 26-894): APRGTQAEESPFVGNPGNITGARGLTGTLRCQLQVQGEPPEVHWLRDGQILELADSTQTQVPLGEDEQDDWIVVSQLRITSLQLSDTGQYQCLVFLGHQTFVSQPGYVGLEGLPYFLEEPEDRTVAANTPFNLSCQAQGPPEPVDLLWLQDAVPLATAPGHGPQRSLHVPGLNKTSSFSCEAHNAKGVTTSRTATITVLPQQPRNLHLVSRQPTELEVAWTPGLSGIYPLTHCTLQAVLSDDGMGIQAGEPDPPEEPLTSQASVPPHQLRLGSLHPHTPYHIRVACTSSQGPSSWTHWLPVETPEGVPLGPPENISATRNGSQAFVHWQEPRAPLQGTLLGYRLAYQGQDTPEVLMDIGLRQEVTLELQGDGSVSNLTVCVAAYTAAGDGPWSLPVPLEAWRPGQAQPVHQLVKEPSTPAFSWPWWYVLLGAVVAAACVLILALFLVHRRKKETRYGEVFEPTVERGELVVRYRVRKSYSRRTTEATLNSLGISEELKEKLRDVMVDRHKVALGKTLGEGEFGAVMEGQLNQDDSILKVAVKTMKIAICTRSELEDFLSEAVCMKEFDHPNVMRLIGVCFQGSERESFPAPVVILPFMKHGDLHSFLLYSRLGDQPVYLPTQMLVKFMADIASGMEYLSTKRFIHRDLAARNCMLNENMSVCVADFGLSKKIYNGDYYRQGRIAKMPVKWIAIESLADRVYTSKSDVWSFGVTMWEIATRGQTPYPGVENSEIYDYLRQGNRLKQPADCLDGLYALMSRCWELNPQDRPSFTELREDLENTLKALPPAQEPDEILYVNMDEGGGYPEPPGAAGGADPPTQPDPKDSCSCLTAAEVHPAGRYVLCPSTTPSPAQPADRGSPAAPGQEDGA

Mer = target: T3, Mer (Homo sapiens, UniProt Q12866); test: LanthaScreen Eu kinase binding assay, Mer; details: Tracer 236
T3 construct: purchased Life Technologies
T3 sequence (Q12866 21-999): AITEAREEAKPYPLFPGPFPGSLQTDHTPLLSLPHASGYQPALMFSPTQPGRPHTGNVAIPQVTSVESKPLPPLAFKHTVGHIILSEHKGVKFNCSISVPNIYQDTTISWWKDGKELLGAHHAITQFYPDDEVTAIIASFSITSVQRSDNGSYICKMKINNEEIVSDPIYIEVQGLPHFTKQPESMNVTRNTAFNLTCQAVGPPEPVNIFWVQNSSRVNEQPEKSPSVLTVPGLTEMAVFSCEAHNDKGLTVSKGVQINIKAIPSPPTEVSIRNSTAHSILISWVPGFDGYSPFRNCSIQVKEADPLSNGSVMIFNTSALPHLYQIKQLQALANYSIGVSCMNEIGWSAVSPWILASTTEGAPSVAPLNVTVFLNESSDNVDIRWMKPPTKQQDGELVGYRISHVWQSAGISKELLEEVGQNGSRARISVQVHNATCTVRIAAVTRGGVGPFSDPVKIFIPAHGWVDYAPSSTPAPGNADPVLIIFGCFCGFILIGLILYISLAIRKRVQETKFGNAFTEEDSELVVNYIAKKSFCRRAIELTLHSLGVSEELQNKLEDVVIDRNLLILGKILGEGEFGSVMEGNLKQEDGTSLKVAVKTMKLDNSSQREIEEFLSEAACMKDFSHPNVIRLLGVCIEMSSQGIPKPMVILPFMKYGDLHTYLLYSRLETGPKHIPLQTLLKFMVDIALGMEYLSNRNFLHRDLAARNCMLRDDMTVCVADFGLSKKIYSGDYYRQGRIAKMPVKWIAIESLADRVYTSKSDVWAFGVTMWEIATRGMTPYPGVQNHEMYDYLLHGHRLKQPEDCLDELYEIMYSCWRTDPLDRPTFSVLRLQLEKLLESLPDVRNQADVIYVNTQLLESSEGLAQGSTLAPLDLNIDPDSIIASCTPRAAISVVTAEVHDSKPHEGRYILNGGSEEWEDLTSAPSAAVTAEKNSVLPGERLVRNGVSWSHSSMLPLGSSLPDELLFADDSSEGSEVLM

Met = target: T4, Met (Homo sapiens, UniProt P08581); test: LanthaScreen Eu kinase binding assay, Met; details: Tracer 236, read-out: cMet kinase binding activity (Kd)
T4 construct: purchased Life Technologies
T4 sequence (P08581 25-1390): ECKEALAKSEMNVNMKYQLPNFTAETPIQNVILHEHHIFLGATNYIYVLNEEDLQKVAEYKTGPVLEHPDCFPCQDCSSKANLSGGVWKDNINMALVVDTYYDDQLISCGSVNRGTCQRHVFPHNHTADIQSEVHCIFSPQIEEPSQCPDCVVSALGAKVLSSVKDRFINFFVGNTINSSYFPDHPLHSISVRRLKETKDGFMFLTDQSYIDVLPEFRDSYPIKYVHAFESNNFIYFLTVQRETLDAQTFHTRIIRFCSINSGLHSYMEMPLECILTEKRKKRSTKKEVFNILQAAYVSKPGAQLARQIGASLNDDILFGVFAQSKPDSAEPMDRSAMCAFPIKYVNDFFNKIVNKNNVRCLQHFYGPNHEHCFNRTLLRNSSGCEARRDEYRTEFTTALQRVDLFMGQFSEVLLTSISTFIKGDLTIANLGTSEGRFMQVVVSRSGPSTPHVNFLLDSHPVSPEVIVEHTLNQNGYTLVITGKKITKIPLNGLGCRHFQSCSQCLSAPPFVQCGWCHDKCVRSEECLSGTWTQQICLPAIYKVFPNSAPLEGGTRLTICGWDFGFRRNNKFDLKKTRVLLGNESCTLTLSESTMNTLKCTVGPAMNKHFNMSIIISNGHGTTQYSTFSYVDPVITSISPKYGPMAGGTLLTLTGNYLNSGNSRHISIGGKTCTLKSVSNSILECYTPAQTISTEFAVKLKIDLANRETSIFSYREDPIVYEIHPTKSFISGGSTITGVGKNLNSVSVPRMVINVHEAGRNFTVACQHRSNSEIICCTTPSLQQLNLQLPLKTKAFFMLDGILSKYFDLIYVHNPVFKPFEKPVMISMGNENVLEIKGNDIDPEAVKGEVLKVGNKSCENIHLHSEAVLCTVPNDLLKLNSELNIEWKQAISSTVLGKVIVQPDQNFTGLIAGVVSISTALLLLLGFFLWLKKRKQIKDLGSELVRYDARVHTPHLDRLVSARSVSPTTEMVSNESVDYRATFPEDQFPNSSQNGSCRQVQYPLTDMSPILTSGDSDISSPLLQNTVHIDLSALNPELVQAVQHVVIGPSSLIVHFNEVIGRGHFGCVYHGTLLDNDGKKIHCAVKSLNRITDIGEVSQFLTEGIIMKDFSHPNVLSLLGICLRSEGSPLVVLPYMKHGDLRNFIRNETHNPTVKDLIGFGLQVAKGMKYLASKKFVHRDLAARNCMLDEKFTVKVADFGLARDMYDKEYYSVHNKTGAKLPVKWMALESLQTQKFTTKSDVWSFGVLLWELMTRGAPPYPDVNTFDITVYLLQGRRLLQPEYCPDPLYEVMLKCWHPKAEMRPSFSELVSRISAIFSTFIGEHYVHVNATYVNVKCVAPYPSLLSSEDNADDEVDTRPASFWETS

Compound	Kd (TYRO3)	Kd (Axl)	Kd (Mer)	Kd (Met)
CCOc1cn(-c2cnccc2C(=O)OC)nc1C(=O)Nc1ccc(Oc2ccnc3cc(OC)c(OC)cc23)cn1 [Compound 172]	< 100 nM	< 100 nM	< 100 nM	< 100 nM
CCOc1cn(-c2cnccc2OC)nc1C(=O)Nc1ccc(Oc2ccnc3cc(OC)c(OC)cc23)cn1 [Compound 173]	< 100 nM	< 100 nM	< 100 nM	< 100 nM
CCOc1cn(-c2cnccc2CC(=O)OC)nc1C(=O)Nc1ccc(Oc2ccnc3cc(OC)c(OC)cc23)cn1 [Compound 176]	100 to 1000 nM	< 100 nM	< 100 nM	< 100 nM
CCOc1cnn(CC2CCCN(C)C2)c1C(=O)Nc1ccc(Oc2ccnc3cc(OC)c(OC)cc23)cc1F (stereo not drawn) [Compound 216]	≥ 1000 nM	100 to 1000 nM	100 to 1000 nM	100 to 1000 nM
CCOc1cnn(Cc2cnccn2)c1C(=O)Nc1ccc(Oc2ccnc3cc(OC)c(OC)cc23)cc1F [Compound 217]	≥ 1000 nM	≥ 1000 nM	100 to 1000 nM	100 to 1000 nM
CCOc1cn(CC2CCNCC2)nc1C(=O)Nc1ccc(Oc2ccnc3cc(OC)c(OC)cc23)cc1F [Compound 218]	100 to 1000 nM	100 to 1000 nM	100 to 1000 nM	100 to 1000 nM
CCOc1cnn(CC2CCN(C)CC2)c1C(=O)Nc1ccc(Oc2ccnc3cc(OC)c(OC)cc23)cc1F [Compound 220]	≥ 1000 nM	≥ 1000 nM	≥ 1000 nM	≥ 1000 nM
CCOc1cn(-c2cnccc2C)nc1C(=O)NC1CC2(C1)CC(Oc1ccnc3cc(OC)c(OC)cc13)C2 (stereo not drawn) [Compound 221]	≥ 1000 nM	≥ 1000 nM	≥ 1000 nM	≥ 1000 nM
CCOc1cnn(C2CCN(C)CC2)c1C(=O)Nc1ccc(Oc2ccnc3cc(OC)c(OC)cc23)cc1F [Compound 223]	≥ 1000 nM	≥ 1000 nM	100 to 1000 nM	≥ 1000 nM
CCOc1cnn(Cc2cnccc2C)c1C(=O)Nc1ccc(Oc2ccnc3cc(OC)c(OC)cc23)cc1F [Compound 228]	≥ 1000 nM	≥ 1000 nM	100 to 1000 nM	100 to 1000 nM
CCOc1cnn(-c2cnc(N)nc2)c1C(=O)Nc1ccc(Oc2ccnc3cc(OC(C)C)c(OC)cc23)cc1F [Compound 232]	≥ 1000 nM	100 to 1000 nM	100 to 1000 nM	≥ 1000 nM
COc1cc2nccc(Oc3ccc(NC(=O)c4nn(-c5cc(F)ccc5Cl)cc4OCC(F)(F)F)nc3)c2cc1OC [Compound 279]	< 100 nM	< 100 nM	< 100 nM	< 100 nM

More lines, now with the values ahead:

Kd (TYRO3)	Kd (Axl)	Kd (Mer)	Kd (Met)	Compound
< 100 nM	< 100 nM	< 100 nM	< 100 nM	CCOc1cn(-c2cncnc2OC)nc1C(=O)Nc1ccc(Oc2ccnc3cc(OC)c(OC)cc23)cn1 [Compound 175]
< 100 nM	< 100 nM	< 100 nM	< 100 nM	CCOc1cn(-c2nccnc2F)nc1C(=O)Nc1ccc(Oc2ccnc3cc(OC)c(OC)cc23)cn1 [Compound 178]
≥ 1000 nM	100 to 1000 nM	100 to 1000 nM	≥ 1000 nM	CCOc1cn(-c2cncnc2N2CCCC2)nc1C(=O)Nc1ccc(Oc2ccnc3cc(OC)c(OC)cc23)cn1 [Compound 180]
≥ 1000 nM	≥ 1000 nM	100 to 1000 nM	100 to 1000 nM	CCOc1cn(-c2cnccn2)nc1C(=O)NC1CC(Oc2ccnc3cc(OC)c(OC)cc23)C1 (stereo not drawn) [Compound 204]
100 to 1000 nM	100 to 1000 nM	100 to 1000 nM	100 to 1000 nM	CCOc1cn(CC2CCCN(C)C2)nc1C(=O)Nc1ccc(Oc2ccnc3cc(OC)c(OC)cc23)cc1F (stereo not drawn) [Compound 214]
100 to 1000 nM	100 to 1000 nM	100 to 1000 nM	100 to 1000 nM	CCOc1cn(CC2CCN(C)CC2)nc1C(=O)Nc1ccc(Oc2ccnc3cc(OC)c(OC)cc23)cc1F [Compound 219]
≥ 1000 nM	100 to 1000 nM	100 to 1000 nM	≥ 1000 nM	CCOc1cn(C2CCN(C)CC2)nc1C(=O)Nc1ccc(Oc2ccnc3cc(OC)c(OC)cc23)cc1F [Compound 222]
< 100 nM	< 100 nM	< 100 nM	100 to 1000 nM	CCC(C)Oc1cc2nccc(Oc3ccc(NC(=O)c4nn(-c5cnc(N)nc5)cc4OCC(F)(F)F)nc3)c2cc1OC (stereo not drawn) [Compound 235]
≥ 1000 nM	≥ 1000 nM	100 to 1000 nM	≥ 1000 nM	CCC(C)Oc1cc2nccc(Oc3ccc(NC(=O)c4c(OCC(F)(F)F)cnn4-c4cnc(N)nc4)nc3)c2cc1OC (stereo not drawn) [Compound 238]
≥ 1000 nM	≥ 1000 nM	100 to 1000 nM	≥ 1000 nM	COCCOc1cnn(-c2cnc(N)nc2)c1C(=O)Nc1ccc(Oc2ccnc3cc(OC)c(OC)cc23)cn1 [Compound 245]
≥ 1000 nM	100 to 1000 nM	100 to 1000 nM	≥ 1000 nM	COc1cc2c(Oc3ccc(NC(=O)c4c(OCC(F)(F)F)cnn4-c4cnc(N)nc4)nc3)ccnc2cc1OC(C)C [Compound 256]
100 to 1000 nM	100 to 1000 nM	100 to 1000 nM	100 to 1000 nM	COc1cc2nccc(Oc3ccc(NC(=O)c4nn(-c5ccc(F)cc5-c5ccccc5)cc4OCC4CC4)nc3)c2cc1OC [Compound 275]
100 to 1000 nM	< 100 nM	< 100 nM	< 100 nM	COc1cc2nccc(Oc3ccc(NC(=O)c4nn(-c5ccc(F)cc5C)cc4OCCN(C)C)cc3F)c2cc1OC [Compound 276]
< 100 nM	≥ 1000 nM	100 to 1000 nM	≥ 1000 nM	CCOc1nn(-c2ccc(F)cc2C)cc1C(=O)Nc1ccc(Oc2ccnc3cc(OC)c(OC)cc23)c(F)c1 [Compound 277]
100 to 1000 nM	< 100 nM	< 100 nM	100 to 1000 nM	COc1cc2nccc(Oc3ccc(NC(=O)c4nn(-c5ccc(F)c(Cl)c5)cc4OCC(F)(F)F)nc3)c2cc1OC [Compound 278]
